Reference: ChEMBL document CHEMBL1201862, “PubChem BioAssay data set” (2004)
Blank lines part the entries; values can stand above or below the molecule they belong to. Activity calls are given as the source filed them.

Legend:
[1] = target: Arf-GAP with SH3 domain, ANK repeat and PH domain-containing protein 1 (Homo sapiens, UniProt Q9ULH1); type: functional;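 also: biochemical fluorescence polarization dose–response screen measuring inhibition of ASAP1; ASAP1 GAP domain stimulating GTP hydrolysis by truncated human ARF1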
Chain of Arf-GAP with SH3 domain, ANK repeat and PH domain-containing protein 1 (Q9ULH1 whole entry, the tested form may be a part): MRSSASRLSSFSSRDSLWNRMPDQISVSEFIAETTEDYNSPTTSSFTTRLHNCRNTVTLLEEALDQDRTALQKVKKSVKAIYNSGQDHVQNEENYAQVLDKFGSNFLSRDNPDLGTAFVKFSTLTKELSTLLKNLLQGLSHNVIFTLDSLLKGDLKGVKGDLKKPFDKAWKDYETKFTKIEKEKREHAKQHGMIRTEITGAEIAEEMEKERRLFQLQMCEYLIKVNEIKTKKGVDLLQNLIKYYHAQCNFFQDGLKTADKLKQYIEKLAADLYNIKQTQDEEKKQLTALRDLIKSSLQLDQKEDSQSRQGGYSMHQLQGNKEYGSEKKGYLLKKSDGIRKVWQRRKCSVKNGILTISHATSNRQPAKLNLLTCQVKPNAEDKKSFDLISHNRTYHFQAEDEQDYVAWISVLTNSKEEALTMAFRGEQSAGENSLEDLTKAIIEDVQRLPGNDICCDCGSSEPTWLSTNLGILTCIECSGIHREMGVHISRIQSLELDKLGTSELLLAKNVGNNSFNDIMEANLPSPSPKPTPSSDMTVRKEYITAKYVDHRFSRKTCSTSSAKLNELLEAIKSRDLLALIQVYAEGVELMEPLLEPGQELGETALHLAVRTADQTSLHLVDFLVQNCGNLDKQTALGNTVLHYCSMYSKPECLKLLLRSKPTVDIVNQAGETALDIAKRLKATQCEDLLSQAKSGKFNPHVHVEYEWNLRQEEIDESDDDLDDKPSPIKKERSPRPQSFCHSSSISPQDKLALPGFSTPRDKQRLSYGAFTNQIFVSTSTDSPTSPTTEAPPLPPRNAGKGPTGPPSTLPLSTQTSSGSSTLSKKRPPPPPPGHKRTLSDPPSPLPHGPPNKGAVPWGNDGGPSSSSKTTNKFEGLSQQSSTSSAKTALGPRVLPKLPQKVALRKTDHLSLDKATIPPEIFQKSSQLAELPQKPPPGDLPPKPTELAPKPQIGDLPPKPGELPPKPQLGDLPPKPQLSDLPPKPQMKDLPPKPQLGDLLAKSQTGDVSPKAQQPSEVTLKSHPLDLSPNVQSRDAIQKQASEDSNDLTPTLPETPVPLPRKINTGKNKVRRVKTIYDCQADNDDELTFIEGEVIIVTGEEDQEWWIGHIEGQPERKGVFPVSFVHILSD

[2] = target: Broad substrate specificity ATP-binding cassette transporter ABCG2 (Homo sapiens, UniProt Q9UNQ0); test: ABCG2 efflux pump inhibitors, dose response, Ig-MXP3 cells, flow cytometry (AID 1690); type: functional
Chain of Broad substrate specificity ATP-binding cassette transporter ABCG2 (Q9UNQ0 whole entry): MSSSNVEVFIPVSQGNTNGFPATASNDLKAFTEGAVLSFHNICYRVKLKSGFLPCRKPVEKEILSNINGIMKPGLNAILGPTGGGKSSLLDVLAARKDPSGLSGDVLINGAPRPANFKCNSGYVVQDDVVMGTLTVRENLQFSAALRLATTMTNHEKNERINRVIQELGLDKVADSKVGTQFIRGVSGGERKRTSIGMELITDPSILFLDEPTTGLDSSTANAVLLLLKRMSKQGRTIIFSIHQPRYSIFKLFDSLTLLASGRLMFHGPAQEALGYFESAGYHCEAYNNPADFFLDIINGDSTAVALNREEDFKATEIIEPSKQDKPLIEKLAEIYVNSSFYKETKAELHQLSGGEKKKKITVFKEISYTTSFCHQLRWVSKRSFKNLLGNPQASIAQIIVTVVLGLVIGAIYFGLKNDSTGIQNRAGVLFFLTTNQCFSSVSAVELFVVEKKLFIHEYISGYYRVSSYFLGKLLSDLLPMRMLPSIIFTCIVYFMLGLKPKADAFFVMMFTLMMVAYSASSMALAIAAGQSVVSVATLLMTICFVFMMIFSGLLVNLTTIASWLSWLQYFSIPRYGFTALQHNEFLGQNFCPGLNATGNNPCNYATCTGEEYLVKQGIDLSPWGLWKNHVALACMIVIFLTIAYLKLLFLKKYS

[3] = target: T1, Rac GTPase-activating protein 1 (Homo sapiens, UniProt Q9H0H5); test: MgcRacGAP GTPase-activating activity inhibitors, confirmation, biochemical, ADP Hunter fluorescence, primary and confirmatory (AID 624330); type: functional
T1 sequence (Q9H0H5 whole entry): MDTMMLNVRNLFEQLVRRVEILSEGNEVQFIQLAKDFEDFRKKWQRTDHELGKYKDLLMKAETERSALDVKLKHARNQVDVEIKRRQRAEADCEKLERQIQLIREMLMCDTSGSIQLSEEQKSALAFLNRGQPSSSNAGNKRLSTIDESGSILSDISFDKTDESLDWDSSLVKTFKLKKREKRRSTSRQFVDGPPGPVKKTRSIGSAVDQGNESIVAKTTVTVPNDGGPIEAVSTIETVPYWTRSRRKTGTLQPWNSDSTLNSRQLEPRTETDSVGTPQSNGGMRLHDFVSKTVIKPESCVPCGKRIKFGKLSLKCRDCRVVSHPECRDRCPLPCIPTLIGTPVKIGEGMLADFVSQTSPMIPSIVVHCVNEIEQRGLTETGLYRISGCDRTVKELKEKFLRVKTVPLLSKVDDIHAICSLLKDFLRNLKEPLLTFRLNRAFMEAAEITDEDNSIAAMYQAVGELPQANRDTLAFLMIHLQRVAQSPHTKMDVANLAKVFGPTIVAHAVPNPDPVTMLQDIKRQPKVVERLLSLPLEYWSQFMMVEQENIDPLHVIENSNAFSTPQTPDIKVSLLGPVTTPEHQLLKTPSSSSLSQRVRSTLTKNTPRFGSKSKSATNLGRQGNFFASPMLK

[4] = target: ATP-dependent translocase ABCB1 (Homo sapiens, UniProt P08183); test: ABCB1 efflux pump inhibitor potency, dose response, Jurkat-DNR cells, JC-1, flow cytometry (AID 1689); type: functional
Chain of ATP-dependent translocase ABCB1 (P08183 whole entry): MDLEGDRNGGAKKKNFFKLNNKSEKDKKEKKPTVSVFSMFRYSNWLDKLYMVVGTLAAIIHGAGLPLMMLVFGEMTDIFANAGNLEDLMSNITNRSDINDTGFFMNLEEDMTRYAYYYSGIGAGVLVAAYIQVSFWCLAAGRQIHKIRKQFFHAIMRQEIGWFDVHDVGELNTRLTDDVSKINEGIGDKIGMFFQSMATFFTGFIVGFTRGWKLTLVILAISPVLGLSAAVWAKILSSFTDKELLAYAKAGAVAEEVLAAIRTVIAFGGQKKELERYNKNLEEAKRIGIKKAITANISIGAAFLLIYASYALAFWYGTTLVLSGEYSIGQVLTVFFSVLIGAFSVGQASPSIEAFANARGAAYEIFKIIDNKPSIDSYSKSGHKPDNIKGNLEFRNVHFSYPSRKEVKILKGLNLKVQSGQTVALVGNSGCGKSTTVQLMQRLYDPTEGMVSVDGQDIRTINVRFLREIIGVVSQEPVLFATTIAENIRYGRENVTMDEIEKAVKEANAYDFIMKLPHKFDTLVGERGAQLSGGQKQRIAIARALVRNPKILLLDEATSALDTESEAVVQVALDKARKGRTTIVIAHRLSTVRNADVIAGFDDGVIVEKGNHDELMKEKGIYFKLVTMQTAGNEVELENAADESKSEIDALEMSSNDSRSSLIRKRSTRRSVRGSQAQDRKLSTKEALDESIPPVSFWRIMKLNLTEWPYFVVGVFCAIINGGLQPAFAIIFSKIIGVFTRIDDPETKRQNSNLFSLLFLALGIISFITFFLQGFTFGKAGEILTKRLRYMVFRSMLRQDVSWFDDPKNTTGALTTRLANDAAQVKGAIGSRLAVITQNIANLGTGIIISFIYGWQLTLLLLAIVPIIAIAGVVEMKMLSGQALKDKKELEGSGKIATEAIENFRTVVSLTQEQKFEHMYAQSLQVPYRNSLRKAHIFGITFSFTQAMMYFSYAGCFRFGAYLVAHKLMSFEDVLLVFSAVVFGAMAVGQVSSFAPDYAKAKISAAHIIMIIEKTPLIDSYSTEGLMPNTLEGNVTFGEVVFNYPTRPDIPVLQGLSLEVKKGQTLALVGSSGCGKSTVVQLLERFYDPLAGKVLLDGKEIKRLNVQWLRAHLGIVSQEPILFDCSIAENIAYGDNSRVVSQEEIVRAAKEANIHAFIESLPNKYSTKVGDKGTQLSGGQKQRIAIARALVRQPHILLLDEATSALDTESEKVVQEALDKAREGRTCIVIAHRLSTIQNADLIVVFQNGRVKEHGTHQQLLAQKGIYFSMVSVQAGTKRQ

[5] = target: T2, Sentrin-specific protease 8 (Homo sapiens, UniProt Q96LD8); type: functional
T2 sequence (Q96LD8 whole entry): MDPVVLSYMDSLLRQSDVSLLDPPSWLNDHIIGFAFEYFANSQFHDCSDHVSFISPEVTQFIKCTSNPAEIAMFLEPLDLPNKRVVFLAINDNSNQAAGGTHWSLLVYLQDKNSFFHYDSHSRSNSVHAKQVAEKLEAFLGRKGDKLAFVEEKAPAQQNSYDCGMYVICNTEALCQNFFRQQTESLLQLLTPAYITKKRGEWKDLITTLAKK

[6] = target: T2, Sentrin-specific protease 8; type: functional; remark: listed apart in the source
[7] = target: T3, Sentrin-specific protease 1 (Homo sapiens, UniProt Q9P0U3); test: Dose response confirmation of small molecule inhibitors of the catalytic domain of the SUMO protease, SENP1 in a FRET assay.; type: functional; details: read-out: IC50_Mean
T3 sequence (Q9P0U3 whole entry, the tested form may be a part): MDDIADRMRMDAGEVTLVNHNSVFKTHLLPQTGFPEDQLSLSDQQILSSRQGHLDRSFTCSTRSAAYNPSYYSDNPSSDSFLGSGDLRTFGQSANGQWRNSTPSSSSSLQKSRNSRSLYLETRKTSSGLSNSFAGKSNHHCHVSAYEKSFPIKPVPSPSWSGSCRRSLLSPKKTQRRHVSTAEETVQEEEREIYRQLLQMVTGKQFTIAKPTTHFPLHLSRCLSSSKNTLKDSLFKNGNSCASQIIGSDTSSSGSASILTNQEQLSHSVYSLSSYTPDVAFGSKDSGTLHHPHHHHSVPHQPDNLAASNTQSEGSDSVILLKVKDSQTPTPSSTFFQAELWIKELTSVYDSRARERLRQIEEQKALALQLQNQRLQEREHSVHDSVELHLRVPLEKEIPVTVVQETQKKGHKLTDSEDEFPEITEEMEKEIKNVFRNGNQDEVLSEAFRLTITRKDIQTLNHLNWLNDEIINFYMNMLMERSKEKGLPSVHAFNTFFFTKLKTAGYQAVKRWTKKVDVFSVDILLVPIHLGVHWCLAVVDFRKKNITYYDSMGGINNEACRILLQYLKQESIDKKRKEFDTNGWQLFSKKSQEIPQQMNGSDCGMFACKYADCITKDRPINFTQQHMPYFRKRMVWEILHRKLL

[8] = target: T3, Sentrin-specific protease 1; test: potency of human SENP1 inhibitors, dose response, biochemical, kinetic FRET (AID 651697); type: functional; details: read-out: IC50_Mean
A549 = test: A549 cell toxicity, dose response, cytotoxicity control, plate reader, cherry-pick samples (AID 687028); type: functional, cell-based; details: Homo sapiens
[9] = target: T4, Scavenger receptor class B member 1 (Mus musculus, UniProt Q61009); test: inhibitors of SR-BI dependent HDL uptake, dose response, ldlA[mSR-BI] CHO cells, fluorescence plate reader, dry powder, set 9 (AID 623880); type: functional, cell-based
T4 sequence (Q61009 whole entry): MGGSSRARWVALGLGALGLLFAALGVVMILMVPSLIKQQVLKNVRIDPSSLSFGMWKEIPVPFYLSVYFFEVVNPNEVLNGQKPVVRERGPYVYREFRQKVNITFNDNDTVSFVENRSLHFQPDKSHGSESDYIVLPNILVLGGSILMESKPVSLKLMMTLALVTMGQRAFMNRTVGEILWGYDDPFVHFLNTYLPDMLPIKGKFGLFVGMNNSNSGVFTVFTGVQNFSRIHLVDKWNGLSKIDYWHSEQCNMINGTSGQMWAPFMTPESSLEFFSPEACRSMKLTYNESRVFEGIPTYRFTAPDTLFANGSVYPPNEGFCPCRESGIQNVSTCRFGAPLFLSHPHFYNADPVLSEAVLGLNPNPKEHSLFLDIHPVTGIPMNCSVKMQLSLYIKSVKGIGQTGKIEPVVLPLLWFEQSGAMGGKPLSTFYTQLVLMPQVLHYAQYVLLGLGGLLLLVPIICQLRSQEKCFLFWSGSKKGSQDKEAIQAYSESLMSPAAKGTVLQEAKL

[10] = target: T4, Scavenger receptor class B member 1; test: inhibitors of SR-BI-mediated HDL uptake, dose response, cell-based, ldlA[mSR-BI] CHO, DiI fluorescence, dry powder, set 10 (AID 624029); type: functional

IC50 [1]: 11.8 µM (inactive)
Structure (SMILES): COc1ccc(-n2nnc3c(=O)n(CC(=O)Nc4ccc5c(c4)OCCO5)cnc32)cc1OC

EC50 [2]: 0.76 µM (inactive) | IC50 [3]: 83.3 µM (active) | EC50 [4]: 0.165 µM (active)
Structure (SMILES): COc1cc(C(=O)N/N=C/c2ccc(OC)c(CN3CCN(c4ccc(F)cc4)CC3)c2)ccc1O

IC50 [7]: 16.4 µM (active) | IC50 [8]: 12 µM (active)
Structure (SMILES): O=C(NC[C@@H]1CCCO1)c1cccc2c1C(=O)c1ccc(N3CCOCC3)cc1S2(=O)=O

AC50 [9]: 0.176 µM (active) | AC50 [10]: 0.202 µM (active)
Structure (SMILES): C[C@@H]1CN([C@H](C)CO)C(=O)c2cc(NC(=O)C3CCCCC3)ccc2O[C@H]1CN(C)S(=O)(=O)c1ccccc1Cl

Second part, the molecule before the results:

Structure (SMILES): COc1ccc(S(=O)(=O)Oc2ccc3cccc(N)c3c2)cc1
IC50 [5]: 9.11 µM (active) | IC50 [6]: 19.6 µM (active)

Structure (SMILES): COc1ccc2c3c([nH]c2c1)[C@H](CO)N(C(=O)c1ccccc1)CC31CN(S(=O)(=O)c2cccs2)C1
AC50 (A549): 26 µM (active)
